“Also recorded” adds a separate entry of the source. Where two headings read alike, the source gives them in different places. Square brackets hold non-standard residues; d marks the D form. Peptide text beside a SMILES is read from it. * marks the point of attachment. NH(1-CH2NMe2-cBu) = CN(C)CC1(N*)CCC1; Benzoyl(4-F) = O=C(c1ccc(F)cc1)*; hCha = N[C@@H](CCC1CCCCC1)C(=O)O; Aib = CC(C)(N)C(=O)O; βAla = NCCC(=O)O
Legend:
[1] = system: B16-F10 mouse melanoma cells; test: In vitro cell viability assay on B16-F10; format: cell-based; settings: B16-F10, 72 hours, resazurin
Description: In vitro cell viability assay methodology.
Half maximal inhibitory concentration (IC50) of the compounds was determined by seeding of cell culture into 96 well-plates (Cat #353072, Corning) and treated the day after with dose-escalating concentrations of the compounds (from 0.001 μM to 10 μM in RPMI-1640 complete) for 72 hours. 1000 cells were seeded per well. […] Triplicates were seeded for each condition. […] Vehicle treated wells were set to 100% viability.

[2] = system: B16F10 xenografts in C57BL/6 mice; test: In vivo efficacy test, dermal treatment of intradermal B16-F10 tumours (tumour volume); set-up: species or system mouse; settings: for T/C [%] (ratio of mean tumour volume of treated over control) / RTV Mean / RTV Median / Tumour Volume [cm^3] Mean / Tumour Volume [cm^3] Median: 20 μl of 5% 6027 dermally daily from day 1; for RTV Mean / RTV Median / Tumour Volume [cm^3] Mean / Tumour Volume [cm^3] Median: n=8
Description: (§1) In vivo efficacy test methodology. C57Bl/6 mice (Janvier Labs); females; 6-8 weeks old at beginning of the treatment. The tumour was induced through intradermal inoculation of 1×10^5 cells per mouse intradermally in the skin of the neck. A total of 24 mice were used (n=8 for vehicle, n=8 for 5% 6027, n=8 for leucinostatin A 0.2%). Test item was applied starting on day 1 after inoculation of the tumour cells. The test items of 20 μl of 5% 6027 and of 0.2% Leucinostatin A were applied dermally with a pipette once a day every day for up to 21 days to the intact skin area of about 1 cm^2 on the site were the B16-F10 cells had been injected. If ulceration occurred then the animal was removed from the test and sacrificed.
(§2) The read out was tumour volume measured three times a week expressed as tumour volume (in cm^3). Additionally, tumour samples were taken for histological analysis (Tumour FFPE) (2 mice per group).

[3] = Dermal tolerability in the in vivo efficacy test; set-up: species or system mouse; settings: 20 μl of 5% 6027 once a day
Description: as §1

[4] = system: B16F10 xenografts in C57BL/6 mice; test: Histopathology (Ki67, TUNEL) of tumour slices from treated mice; format: in vivo, mouse; settings: daily 20 μl of 6027 vs vehicle treated controls; Two-Way ANOVA
Description: as §2
Histopathology. After sacrifice non ulcerated tumours were sampled and paraffin blocks were prepared for immunohistochemistry stainings. […] During interphase, the Ki-67 antigen can be exclusively detected within the cell nucleus, whereas in mitosis most of the protein is relocated to the surface of the chromosomes. Ki-67 protein is present during all active phases of the cell cycle (G1, S, G2 and mitosis), but is absent in resting (quiescent) cells (G0). Cellular content of Ki-67 protein markedly increases during cell progression through S phase of the cell cycle.
TUNEL staining was used to determine areas of the tumour in which apoptosis was observed. Terminal deoxynucleotidyl transferase dUTP nick end labeling (TUNEL) staining is a method for detecting DNA fragmentation by labeling the 3′-hydroxyl termini in DNA double-stranded breaks generated during apoptosis.

[5] = system: patient derived Basal Cell Carcinoma (BCC); format: cell-based, human; settings: 4 days, vs DMSO; for cell proliferation (Ki67): p<0.002
Text: Tumour material was harvested from an infiltrative basal cell carcinoma (BCC) from a patient's nose.

[6] = system: patient derived Basal Cell Carcinoma (BCC); format: cell-based, human; settings: 500 nM, 4 days, vs DMSO
[7] = system: patient derived Basal Cell Carcinoma (BCC); test: Ex vivo patient-derived nodular BCC (Example 10), Ki67; format: cell-based, human; settings: 500 nM, 4 days, compared to Vismodegib (20 μM); p<0.002
Description: Tumour material was harvested from a nodular basal cell carcinoma (BCC) from a patient's upper back.
Vismodegib (20 μM) was used as a positive control.

[8] = system: patient derived high grade cutaneous squamous cell carcinoma (cSCC); test: Ex vivo patient-derived high grade cSCC (Example 11), Ki67; format: cell-based, human; settings: 500 nM, 4 days, vs DMSO; p<0.003
Text: Tumour material was harvested from high grade cutaneous squamous cell carcinoma (cSCC) from a patient's head.

In the case of `CC(C)C[C@H](NC(=O)[C@H](CCC1CCCCC1)NC(=O)[C@@H]1CCCN1C(=O)c1ccc(F)cc1)C(=O)NC(C)(C)C(=O)N[C@@H](CC(C)C)C(=O)N[C@@H](CC(C)C)C(=O)NC(C)(C)C(=O)NC(C)(C)C(=O)NCCC(=O)NC1(CN(C)C)CCC1` [Compound 6027, (2S)-2-[(2S)-4-cyclohexyl-2-{[(2S)-1-(4-fluorobenzoyl)pyrrolidin-2-yl]formamido}butanamido]-N-(1-{[(1S)-1-{[(1S)-1-({1-[(1-{[2-({1-[(dimethylamino)methyl]cyclobutyl}carbamoyl)ethyl]carbamoyl}-1-methylethyl)carbamoyl]-1-methylethyl}carbamoyl)-3-methylbutyl]carbamoyl}-3-methylbutyl]carbamoyl}-1-methylethyl)-4-methylpentanamide] ({Benzoyl(4-F)}-P[hCha]L[Aib]LL[Aib][Aib][βAla]-{NH(1-CH2NMe2-cBu)}), the IC50 [1] is reported as 0.208 µM, the “T/C [%] (ratio of mean tumour volume of treated over control)” value ([2]; day 1) is reported as 100% and the “RTV Mean” value ([2]; day 1) is reported as 1.0. The “RTV Median” value ([2]; day 1) was 1.0, the “Tumour Volume [cm^3] Mean” value ([2]; day 1) was 0.001 cm^3 and the “Tumour Volume [cm^3] Median” value ([2]; day 1) was 0.001 cm^3. The “T/C [%] (ratio of mean tumour volume of treated over control)” value ([2]; day 2) was 100%, the “RTV Mean” value ([2]; day 2) was 1.0 and the “RTV Median” value ([2]; day 2) was 1.0. For the same compound, the “Tumour Volume [cm^3] Mean” value ([2]; day 2) was 0.001 cm^3, the “Tumour Volume [cm^3] Median” value ([2]; day 2) was 0.001 cm^3 and the “T/C [%] (ratio of mean tumour volume of treated over control)” value ([2]; day 4) was 100%. For the same compound, the “RTV Mean” value ([2]; day 4) was 1.0, the “RTV Median” value ([2]; day 4) was 1.0 and the “Tumour Volume [cm^3] Mean” value ([2]; day 4) was 0.001 cm^3. The “Tumour Volume [cm^3] Median” value ([2]; day 4) was 0.001 cm^3, the “T/C [%] (ratio of mean tumour volume of treated over control)” value ([2]; day 7) was 71% and the “RTV Mean” value ([2]; day 7) was 8.8. The “RTV Median” value ([2]; day 7) was 9.0, the “Tumour Volume [cm^3] Mean” value ([2]; day 7) was 0.009 cm^3 and the “Tumour Volume [cm^3] Median” value ([2]; day 7) was 0.009 cm^3. For the same compound, the “T/C [%] (ratio of mean tumour volume of treated over control)” value ([2]; day 9) was 64%, the “RTV Mean” value ([2]; day 9) was 28.4 and the “RTV Median” value ([2]; day 9) was 25.5. The “Tumour Volume [cm^3] Mean” value ([2]; day 9) was 0.028 cm^3, the “Tumour Volume [cm^3] Median” value ([2]; day 9) was 0.026 cm^3 and the “T/C [%] (ratio of mean tumour volume of treated over control)” value ([2]; day 10) was 35%. The “RTV Mean” value ([2]; day 10) was 29.9, the “RTV Median” value ([2]; day 10) was 25.5 and the “Tumour Volume [cm^3] Mean” value ([2]; day 10) was 0.030 cm^3. For the same compound, the “Tumour Volume [cm^3] Median” value ([2]; day 10) was 0.026 cm^3, the “T/C [%] (ratio of mean tumour volume of treated over control)” value ([2]; day 11) was 33% and the “RTV Mean” value ([2]; day 11) was 44.6. For the same compound, the “RTV Median” value ([2]; day 11) was 31.0, the “Tumour Volume [cm^3] Mean” value ([2]; day 11) was 0.045 cm^3 and the “Tumour Volume [cm^3] Median” value ([2]; day 11) was 0.031 cm^3. The “reduction of tumour growth” value ([2]; topical treatment with 5% 6027 vs vehicle) was “significant reduction of tumour growth”, the “skin irritations or other side effects” value [3] was “No skin irritations or other side effects were observed; also recorded: did not show skin irritations” and the “tolerability of dermal treatment” value [3] was “well tolerated”. For the same compound, the “apoptotic cells (TUNEL) in tumour slices” value [4] was “significant increase of apoptotic cells; also recorded: Strong proapoptotic potential”, the “proliferative cells (Ki67) in tumour slices” value [4] was “significant decrease in proliferative cells” and the “apoptotic cells (TUNEL staining)” value ([5]; 500 nM) was “Significant increase”. The “cell proliferation (Ki67)” value ([5]; 500 nM) was “significantly reduced”, the “cell proliferation (Ki67)” value ([5]; 1 μM) was “significantly reduced” and the “apoptotic cells (TUNEL staining)” value [5] was “Significant increase”. The “apoptotic cells (TUNEL positive cells)” value [6] was “Significant increase”, the “cell proliferation (Ki67)” value [6] was “significantly reduced” and the “cell proliferation (Ki67)” value [7] was “significantly reduced”. The “cell proliferation (Ki67)” value [8] was “significantly reduced”.

Source: patent publication US20260049101A1, “TOPICAL TREATMENT OF SKIN CANCER USING OLIGOPEPTIDES” (BACOBA AG, priority 2022, published 2026)
